The text below walks through data of paper PMC9919490, “Synthesis and Biological Evaluation of Novel Dispiro-Indolinones with Anticancer Activity” (Molecules, 2023).

For one data set, the system named is HCT^wt cells. The experiment in a line: MTT cytotoxicity assay, HCT^wt (p53 pos). The data set is classed as cell-based. Particulars: 48 h. How it is done: (§1) The synthesized compounds were tested for their ability to block the proliferation of the selected model cell lines: LNCaP (p53+), PC3 (p53-), HCT^wt (p53+), and HCT^−/− (p53-) cells. The assay was carried out using the standard MTT (3-(4,5-dimethylthiazol-2-yl)2,5-diphenyl tetrazolium bromide) assay based on the modified approach reported by Ferrari and colleagues. […] Differences in IC50 values against these cell lines were used to assess the selectivity of the compounds.
(§2) Model cell lines were purchased from the in stock collection of the N.N. Blokhin Russian Cancer Research Center (RAMS). Cells were accurately maintained in the recommended media, supplemented with 10% heat-inactivated FBS (Invitrogen) and 2 mmol/L L-glutamine (Invitrogen).
(§3) First, 4000 cells per well were plated out in 140 µL of DMEM (with 10% FBS) in 96-well plates and incubated in 5% CO2 for 24 h at 37 °C without treatment. […] The cells were treated for 48 h with […] (eight dilutions) concentrations of the substances (each in triplicate) or doxorubicin (0.3 nM–600 nM, eight dilutions) as a control substance. After the incubation, 15 µL of MTT solution in PBS (5 mg/mL) was added, and the cells were incubated for 2 h, followed by removal of the media and addition of 120 µL of DMSO. […] Cell survival rates were determined by the comparison of optical density with the corresponding untreated control cell culture. Dose-dependent curves and the corresponding IC50 values were calculated using “GraphPad Prism 6” software (GraphPad Software, Inc., San Diego, CA, USA).
In general terms: Tetrazolium assays rely on reduction of a dye to a coloured formazan, in cell work by metabolically active cells.

The subject of another data set is PC3 cells. The experiment in a line: MTT cytotoxicity assay, PC3 (p53 neg). It counts as cell-based. How it is done: as §1, §2, §3
For another data set, the system named is LNCaP cells. The experiment in a line: MTT cytotoxicity assay, LNCaP (p53 pos). The data set is classed as cell-based. The conditions noted are these: 48 h. How it is done:
as §1, §2, §3

A further data set has as its system HCT^−/− cells. Description: MTT cytotoxicity assay, HCT^−/− (p53 neg). Particulars: 48 h. It counts as cell-based. As for the experimental part:
as §1, §2, §3

The structures appear in SMILES notation.

In general, IC50 refers to the concentration that gives 50% inhibition. A high value points to weaker potency. `CCOc1ccc(N2C(=O)[C@]3(NC2=S)[C@@H](c2ccc(F)cc2)CN(C)[C@@]32C(=O)Nc3ccccc32)cc1` (racemic) [Compound 30]: the IC50 with HCT^wt cells, in the data set with PC3 cells (48 h), in the data set with LNCaP cells and in the data set with HCT^−/− cells was above 100 µM each time.

For `CCOc1ccc(N2C(=O)[C@]3(NC2=S)[C@@H](c2ccc(F)cc2)CN(C)[C@@]32C(=O)Nc3ccc(Br)cc32)cc1` (racemic) [Compound 31], the IC50 in the data set with HCT^wt cells, in the data set on PC3 cells (48 h), in the data set on LNCaP cells and with HCT^−/− cells was above 100 µM each time.

In the case of `COc1ccc(N2C(=O)[C@]3(NC2=S)[C@@H](c2cccc(Cl)c2)CN(C)[C@@]32C(=O)Nc3ccccc32)cc1` (racemic) [Compound 32], the IC50 with HCT^wt cells, in the data set with PC3 cells (48 h), with LNCaP cells and with HCT^−/− cells was above 100 µM in each case.

Turning to `COc1ccc(N2C(=O)[C@]3(NC2=S)[C@@H](c2cccc(Cl)c2)CN(C)[C@@]32C(=O)Nc3ccc(Br)cc32)cc1` (racemic) [Compound 33], the 50% inhibitory concentration (IC50) in the data set with HCT^wt cells, in the data set with PC3 cells (48 h), in the data set with LNCaP cells and in the data set with HCT^−/− cells was above 100 µM each time.

On to `C#CCOc1ccc([C@H]2CN(C)[C@@]3(C(=O)Nc4ccc(Br)cc43)[C@@]23NC(=S)N(c2ccc(OCC)cc2)C3=O)cc1` (racemic) [Compound 34], for which the IC50 in the data set with HCT^wt cells, with PC3 cells (48 h), with LNCaP cells and in the data set on HCT^−/− cells was above 100 µM in each case.

`CN1C[C@H](c2ccccc2Cl)[C@]2(NC(=S)N(c3ccc(Cl)cc3)C2=O)[C@]12C(=O)Nc1ccc(Cl)cc12` (racemic) [Compound 36]: the IC50 with HCT^wt cells, in the data set with PC3 cells (48 h), with LNCaP cells and in the data set with HCT^−/− cells was above 100 µM each time.

Regarding `CN1C[C@H](c2ccc(Cl)cc2)[C@]2(NC(=S)N(c3ccc(Cl)cc3)C2=O)[C@]12C(=O)Nc1ccc(Cl)cc12` (racemic) [Compound 37], the IC50 in the data set with HCT^wt cells, with PC3 cells (48 h), in the data set on LNCaP cells and in the data set on HCT^−/− cells was above 100 µM throughout.

Regarding `CN1C[C@H](c2ccc(F)cc2)[C@]2(NC(=S)N(c3ccc(Cl)cc3)C2=O)[C@]12C(=O)Nc1ccccc12` (racemic) [Compound 38], the IC50 in the data set with HCT^wt cells, with PC3 cells (48 h), with LNCaP cells and in the data set with HCT^−/− cells was above 100 µM in each case.

For the molecule `CN1C[C@H](c2ccc(Cl)cc2)[C@]2(NC(=S)N(c3ccc(F)cc3)C2=O)[C@]12C(=O)Nc1ccc(Br)cc12` (racemic) [Compound 40], the IC50 with HCT^wt cells, in the data set with PC3 cells (48 h), in the data set on LNCaP cells and in the data set with HCT^−/− cells was above 100 µM throughout.

Take `COc1ccc([C@H]2CN(C)[C@@]3(C(=O)Nc4ccccc43)[C@@]23NC(=S)N(c2ccc(F)c(Cl)c2)C3=O)cc1` (racemic) [Compound 41]: the IC50 in the data set with HCT^wt cells, in the data set on PC3 cells (48 h), in the data set with LNCaP cells and in the data set with HCT^−/− cells was above 100 µM each time.

With `CN1C[C@H](c2ccc(Cl)cc2)[C@]2(NC(=S)N(c3ccc(F)c(Cl)c3)C2=O)[C@]12C(=O)Nc1ccc(Cl)cc12` (racemic) [Compound 42], the IC50 in the data set with HCT^wt cells, in the data set on PC3 cells (48 h), in the data set on LNCaP cells and in the data set on HCT^−/− cells was above 100 µM throughout.

With `CN1C[C@H](c2cccc(Cl)c2)[C@]2(NC(=S)N(c3ccc(F)c(Cl)c3)C2=O)[C@]12C(=O)Nc1ccc(Cl)cc12` (racemic) [Compound 43], the IC50 with HCT^wt cells came to 9.3 ± 4.6 µM; in the data set on PC3 cells (48 h), 5.7 ± 2.6 µM; with LNCaP cells it was 3.2 ± 1.6 µM; in the data set on HCT^−/− cells, 9.5 ± 4.9 µM.

In the case of `COc1ccc([C@H]2CN(C)[C@@]3(C(=O)Nc4ccccc43)[C@@]23NC(=S)N(c2ccc(F)c(Cl)c2)C3=O)cc1OC` (racemic) [Compound 44], the IC50 is 35 ± 16.2 µM in the data set with HCT^wt cells, 10.2 ± 2.3 µM in the data set on PC3 cells (48 h), 8.6 ± 1.8 µM with LNCaP cells and above 100 µM in the data set on HCT^−/− cells.

Take `CCc1ccc([C@H]2CN(C)[C@@]3(C(=O)Nc4ccccc43)[C@@]23NC(=S)N(c2ccc(F)c(Cl)c2)C3=O)cc1` (racemic) [Compound 46]: the IC50 in the data set with HCT^wt cells was 6.3 ± 2.5 µM; with PC3 cells (48 h), above 100 µM; in the data set on LNCaP cells it was above 100 µM; in the data set on HCT^−/− cells, 6.5 ± 3.6 µM.

Take `CN1C[C@H](c2ccc(Cl)cc2)[C@]2(NC(=S)N(c3ccc(O)cc3)C2=O)[C@]12C(=O)Nc1ccc(Cl)cc12` (racemic) [Compound 52]: the 50% inhibitory concentration (IC50) in the data set on HCT^wt cells, in the data set with PC3 cells (48 h), in the data set on LNCaP cells and in the data set with HCT^−/− cells was above 100 µM throughout.

Consider `CN1C[C@H](c2ccccc2Cl)[C@]2(NC(=S)N(c3ccc(O)cc3)C2=O)[C@]12C(=O)Nc1ccccc12` (racemic) [Compound 53], for which the 50% inhibitory concentration (IC50) in the data set on HCT^wt cells, with PC3 cells (48 h), in the data set on LNCaP cells and with HCT^−/− cells was above 100 µM each time.

On to `CN1C[C@H](c2ccccc2Cl)[C@]2(NC(=S)N(c3ccc(O)cc3)C2=O)[C@]12C(=O)Nc1ccc(Cl)cc12` (racemic) [Compound 55], for which the IC50 with HCT^wt cells was above 100 µM; in the data set on PC3 cells (48 h), 15.1 ± 1.2 µM; with LNCaP cells, 7 ± 1 µM; in the data set with HCT^−/− cells, above 100 µM.

As for `COc1ccc([C@H]2CN(C)[C@@]3(C(=O)Nc4ccc(Br)cc43)[C@@]23NC(=S)N(c2ccc(O)cc2)C3=O)cc1OC` (racemic) [Compound 56], the IC50 with HCT^wt cells is above 100 µM; in the data set on PC3 cells (48 h), 30 ± 10.5 µM; in the data set with LNCaP cells, 9 ± 2 µM; with HCT^−/− cells, above 100 µM.

On to `COc1ccc([C@H]2CN(C)[C@@]3(C(=O)Nc4ccc(Cl)cc43)[C@@]23NC(=S)N(c2ccc(O)cc2)C3=O)cc1OC` (racemic) [Compound 57], for which the 50% inhibitory concentration (IC50) in the data set on HCT^wt cells was above 100 µM; with PC3 cells (48 h) it was 20 ± 6.9 µM; with LNCaP cells, 17 ± 1 µM; with HCT^−/− cells it was above 100 µM.

The melting point is the temperature, or range, at which the solid turns liquid. Turning to `CN1CC(c2ccccc2)C2(NC(=S)N(c3ccccc3)C2=O)C12C(=O)Nc1ccccc12` (stereo not shown) [Compound 4], the melting point is 211 to 212 °C. This molecule also gave a half-inhibitory concentration (IC50) with HCT^wt cells above 100 µM. The same molecule came in with an IC50 with PC3 cells (Homo sapiens, PC-3, 48 h) above 100 µM. The molecule further yielded an IC50 with LNCaP cells (Homo sapiens, LNCaP) above 100 µM. In the data set with HCT^−/− cells, the concentration for half-maximal inhibition (IC50) is above 100 µM.

As to `C#CCOc1ccc(N2C(=O)[C@]3(NC2=S)[C@@H](c2ccc(Cl)cc2)CN(C)[C@@]32C(=O)Nc3ccccc32)cc1` [Compound 35], the IC50 with HCT^wt cells was above 100 µM; with PC3 cells (Homo sapiens, PC-3, 48 h) it was above 100 µM; in the data set with LNCaP cells (Homo sapiens, LNCaP) it was above 100 µM; in the data set on HCT^−/− cells, above 100 µM.

With `COc1ccc(C2CN(C)C3(C(=O)Nc4ccc(Cl)cc43)C23NC(=S)N(c2ccc(Cl)cc2)C3=O)cc1OC` (stereo not shown) [Compound 39, 1-(4-chlorophenyl)-4’-(3,4-dimethoxyphenyl)-1’-methyl-5’’’-chloro-2-thiooxodispiro[imidazolidine-4,3’-pyrrolidine-2’,3”-indoline]-2”,5-dione], the half-inhibitory concentration (IC50) in the data set on HCT^wt cells, in the data set on PC3 cells (48 h), in the data set on LNCaP cells and with HCT^−/− cells was above 100 µM throughout.

Consider `CN1CC(c2ccc(Cl)cc2)C2(NC(=S)N(c3ccc(O)cc3)C2=O)C12C(=O)Nc1ccccc12` (stereo not shown) [Compound 50, 1-(4-hydroxyphenyl)-4’-(4-chlorophenyl)-1’-methyl-2-thiooxodispiro[imidazolidine-4,3’-pyrrolidine-2’,3”-indoline]-2”,5-dione], for which the IC50 in the data set with HCT^wt cells was 6.9 ± 3.1 µM; with PC3 cells (48 h), 4.65 ± 2.3 µM; in the data set on LNCaP cells, 18 ± 4.7 µM; in the data set on HCT^−/− cells it was above 100 µM.

Take `CN1CC(c2ccc(Cl)cc2)C2(NC(=S)N(c3ccc(O)cc3)C2=O)C12C(=O)Nc1ccc(Br)cc12` (stereo not shown) [Compound 51, 1-(4-hydroxyphenyl)-4’-(4-chlorophenyl)-1’-methyl-5’’’-bromo-2-thiooxodispiro[imidazolidine-4,3’-pyrrolidine-2’,3”-indoline]-2”,5-dione]: the IC50 in the data set on HCT^wt cells, in the data set with PC3 cells (48 h), with LNCaP cells and with HCT^−/− cells was above 100 µM each time.

`CN1CC(c2ccccc2Cl)C2(NC(=S)N(c3ccc(O)cc3)C2=O)C12C(=O)Nc1ccc(Br)cc12` (stereo not shown) [Compound 54, 1-(4-hydroxyphenyl)-4’-(2-chlorophenyl)-1’-methyl-5’’’-bromo-2-thiooxodispiro[imidazolidine-4,3’-pyrrolidine-2’,3”-indoline]-2”,5-dione]: the IC50 in the data set with HCT^wt cells was above 100 µM; with PC3 cells (48 h), 20 ± 8.4 µM; with LNCaP cells it was 9.5 ± 2.5 µM; with HCT^−/− cells it was above 100 µM.

The molecule `C#CCN1C(=O)[C@]2(c3ccccc31)N(C)C[C@H](c1cccc(Cl)c1)[C@]21NC(=S)N(c2ccc(OC)c(Cl)c2)C1=O` [Compound 69] had a melting point of 199 to 200 °C. Moreover, the IC50 with HCT^wt cells was above 100 µM. For the same molecule, the IC50 in the data set with PC3 cells (Homo sapiens, PC-3, 48 h) is above 100 µM. In addition, the IC50 with LNCaP cells (Homo sapiens, LNCaP) was above 100 µM. For the same molecule, the IC50 with HCT^−/− cells was above 100 µM.
